In PubChem BioAssay AID463229 (Broad Institute, 2010):
The source made the active and inactive calls.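 How the source made its calls: active means compounds raising the signal whose fitted half-maximal concentration is at or below their top tested dose (cut at about 25 µM in these data); inconclusive means flat fit at 30 to 70% activity, or a poor fit; inactive means the rest.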

The molecules below were run on INS-1E rat beta cells, no cytokines, CellTiter-Glo ATP, 48 h (assay: ATP level change in INS-1E without cytokines, dose response, counter-screen for beta-cell apoptosis protection project, INS-1E rat cells, ATP luminescence, cherry pick (AID 463229)).

| Structure (SMILES) | AC50 |
| --- | --- |
| CCOC(=O)N1CCC(NC(=O)C2CCCN(Cc3nc(-c4cccc(Cl)c4)oc3C)C2)CC1 (centres undefined) | 6.01 µM |
| COc1ccc(OCc2n(CC(=O)OC3CC(C)CCC3C(C)C)c3ccccc3[n+]2C)cc1 (centres undefined) | 4.3 µM |
| COc1ccc(S(=O)(=O)N(C(=O)c2ccco2)c2cc3sc(=O)oc3c3ccccc23)cc1 | 14.5 µM |
| CN(C)C1=NC[C@H](Cc2ccccc2)N1CCCC1CCCCC1 | 13.6 µM |
| Cc1cc(C)c2sc(NNC(=O)c3ccc(S(=O)(=O)N4CCc5ccccc5C4)cc3)nc2c1 | 3.38 µM |
| COc1cccc(C(=O)Oc2c(CN3CCOCC3)cc(Cl)c3cccnc23)c1 | 14.3 µM |
| O=C1C=C(Nc2ccc(O)cc2)C(=O)c2ccccc21 | 13.6 µM |
| Cc1ccc(-c2cc3cccc[n+]3cc2-c2ccc(C)cc2)cc1 | 0.566 µM |
| COCCNc1nc2c(c(=O)n(C)c(=O)n2C)n1Cc1cccc(C(F)(F)F)c1 | 12.1 µM |
| Cc1ccc2nc(NNC(=O)c3ccc(S(=O)(=O)N4CCc5ccccc5C4)cc3)sc2c1 | 4.18 µM |
| O=C(NCc1cccnc1)/C(=C/c1ccc(-c2cccc(Cl)c2)o1)S(=O)(=O)c1ccccc1 | 4.93 µM |
| O=C1/C(=C/c2ccc(N3CCOCC3)o2)SC(=Nc2ccccc2)N1CCc1c[nH]c2ccccc12 | > 26 µM (inactive) |
| O=C(c1cc(COc2cccc(C(F)(F)F)c2)on1)N1CCC(c2ccncc2)CC1 | 7.14 µM |
| CCC1CCCCN1C(=O)c1cc(COc2ccc3ncccc3c2)on1 (centres undefined) | 2.74 µM |
| Cc1ccccc1Oc1cc(-n2ncc(Cl)c(Cl)c2=O)ncn1 | 3.98 µM |
| O=C(C#Cc1ccccc1)Nc1cccc(F)c1 | 11.8 µM |
| Oc1c(C(Nc2ccccn2)c2ccccn2)ccc2cccnc12 (centres undefined) | 6.16 µM |
| Oc1ccc(Br)cc1CNc1cccc2cccnc12 | 12.8 µM |
| CC(=O)N(C)C1=C(N2CCOCC2)C(=O)c2ccccc2C1=O | 7.91 µM |
| Cc1c(N/N=C(\C#N)C(=O)c2ccc(Cl)cc2)c(=O)n(-c2ccccc2)n1C | 5.35 µM |
| Cc1[nH]n(-c2ccccc2)c(=O)c1/C=N/NC(=O)c1cccc(F)c1 | 4.23 µM |
| COC1=CC(=O)[C@]2(C=C1OC)OC[C@@H]1Oc3c(ccc4c3C=CC(C)(C)O4)C(=O)[C@@H]12 | 1.07 µM |

| Structure (SMILES) | AC50 |
| --- | --- |
| Cc1ccc([N+](=O)[O-])c(OCCN2CCCCCC2)c1 | 7.14 µM |
| COc1ccc(CNCCC(c2ccccc2)c2ccc3c(c2)OCO3)cc1 (centres undefined) | 15.2 µM |
| COc1ccccc1NC(=O)Cn1cc(C(=O)c2ccco2)c2ccccc21 | 8.7 µM |
| CC(C)Nc1ccc(Nc2ccnc3cc4ccccc4cc23)cc1 | 7.2 µM |
| c1ccc(C2(Cn3ccc4ccccc43)OCCO2)cc1 | > 26 µM (inactive) |
| COc1cc2c(cc1OC)[C@@H]1C(=O)c3ccc4c(c3O[C@@H]1CO2)C[C@H](C(C)C)O4 | < 0.195 µM |
| Cc1oc2c(c1C(=O)N1CCOCC1)C(=O)c1ccccc1C2=O | 8.12 µM |
| Cn1nccc1C(=O)NC1CCCc2c1cnn2-c1ccc(F)cc1F (centres undefined) | 2.48 µM |
| COc1cc(/C=C(/C(=O)c2cccs2)c2nc3ccccc3[nH]2)ccc1O | 12.9 µM |
| CCCCCCCC[n+]1cccc2c3ccccc3ccc21 | 0.273 µM |
| CC(NCC(O)COCCC12CC3CC(CC(C3)C1)C2)c1ccccc1 (centres undefined) | 8.29 µM |
| Cc1ccc(C)c(N=Nc2ccc(O)c3ncccc23)c1 | 3.98 µM |
| FC(F)(F)c1ccccc1NC(=S)N1CCN(Cc2ccc3c(c2)OCO3)CC1 | 7.35 µM |
| O=[N+]([O-])c1ccc(O)c(-c2cc(C(F)(F)F)nc(-c3ccccc3)n2)c1 | 1.59 µM |
| Cc1cccnc1Nc1nc(-c2ccccn2)cs1 | 2.58 µM |
| Cc1ccccc1NC(=S)N/N=C/c1ccc(O)cc1O | 14.6 µM |
| CC(=O)Nc1ccc(S(=O)(=O)NC2=C(N3CCN(c4ccc(F)cc4)CC3)C(=O)c3ccccc3C2=O)cc1 | 7.51 µM |
| C/C(=N\Nc1ccc2nncn2n1)c1ccccn1 | 2.72 µM |
| COc1ccc(-c2c([C@H]3[C@H]4C=CC[C@@H](C)[C@@H]4C(=O)N3Cc3ccccc3)ccc3ccccc23)cc1 | 7.67 µM |
| O=C(NCc1cccnc1)c1ccc(NC(=O)c2ccc(Br)cc2)cc1 | < 0.195 µM |
| Cc1c(C(=O)N/N=C/c2c(O)ccc3ccccc23)nnn1-c1nonc1N | 2.18 µM |
| COc1cccc(/C=N/NC(=O)c2ccc(-c3ccccc3)cc2)c1O | 13.1 µM |

| Structure (SMILES) | AC50 |
| --- | --- |
| COc1ccc2cc3[n+](cc2c1OC)CCc1cc2c(cc1-3)OCO2 | 5.44 µM |
| O=c1c2ccccc2nc(COc2ccccc2)n1/N=C/c1ccc(O)cc1O | 15.9 µM |
| COc1ccc(-n2c(=S)[nH]c3cc(C(=O)Nc4ccccc4OC)ccc3c2=O)cc1 | 8.24 µM |
| COc1ccc(-c2sc3ccccc3c2-c2ccc(OCCN(C)C)cc2)cc1 | 7.12 µM |
| CC[C@H]1CN2CCc3cc(OC)c(OC)cc3[C@@H]2C[C@@H]1C[C@H]1NCCc2cc(OC)c(OC)cc21 | 9.67 µM |
| CCN1c2ccccc2N(C)C1(C)c1ccccc1 (centres undefined) | 4.56 µM |
| O=c1c2ccccc2nc(COc2ccccc2)n1/N=C/c1cc([N+](=O)[O-])ccc1O | 14.7 µM |
| Cc1ccc(C)c(S(=O)(=O)N2CCN(Cc3ccc(O)c4ncccc34)CC2)c1 | 5.74 µM |
| Cc1ccc(NC(=O)Cn2c(O)c(N=NC(=O)c3cc4ccccc4cc3O)c3ccccc32)cc1 | 8.15 µM |
| N=c1ccn(Cc2ccc(Cl)cc2Cl)cc1 | 7.81 µM |
| CC(C)(C)C(=O)NC(=S)NNC(=O)c1ccc(-c2ccccc2)cc1 | 5.71 µM |
| CCCCNc1c(-c2ccc(OC)c(SC(C)CC)c2)nc2ccc(C)cn12 (centres undefined) | 4.44 µM |
| Cc1nnc2ccc(Oc3ccc(-c4ccccc4)cc3)nn12 | 8.92 µM |
| Cc1[nH]c2c(ccc3ccccc32)c1C1C(CCN)C1(C)C (centres undefined) | 14.6 µM |
| O=[N+]([O-])c1c(Nc2ccccn2)cc(Cl)c2nonc12 | 7.39 µM |
| COc1ccc(O)c(/C=N/NC(=O)c2ccc(CSc3nc(C)cc(C)n3)cc2)c1 | 11.2 µM |
| COc1cccc(N2CCN(c3ncnc4c3[nH]c3ccc(F)cc34)CC2C)c1 (centres undefined) | 3.09 µM |
| CCCCCn1c(=O)c(C(=O)NC(C)c2ccccc2)c(O)c2ccccc21 (centres undefined) | 4.19 µM |
| CN1/C(=C\P(=O)(N(C)C)N(C)C)C(C)(C)c2ccccc21 | 4.86 µM |
| O=C(Nc1ccc(Cl)cc1)Nc1ccc(N2CCCC2)c(S(=O)(=O)Nc2ccccc2Cl)c1 | 7.12 µM |
| COc1cccc(Cn2c(NCc3ccco3)nc3c2c(=O)n(C)c(=O)n3C)c1 | 6.42 µM |
| Cc1nc2c(=O)n(C)c(=O)nc-2n(C)n1 | 2.06 µM |

| Structure (SMILES) | AC50 |
| --- | --- |
| Cc1ccc(NC(=O)Cn2c(=O)oc3cc(S(=O)(=O)N4CCC(C)CC4)ccc32)cc1C | 16 µM |
| COc1ccc(-c2nc(NC(=O)c3cc(C(C)(C)C)nn3C)sc2C)cc1 | 17.6 µM |
| FC(F)(F)c1cnc(NNC(=S)Nc2ccc(Cl)cc2)c(Cl)c1 | 6.99 µM |
| CCN(Cc1ccccc1)C(c1ccc(C(F)(F)F)cc1)c1nnnn1C(C)(C)C (centres undefined) | 4.83 µM |
| O=C(C1=C[C@@H](c2ccc(C(F)(F)F)cc2)C[C@@H](OCCCCO)O1)N1CCN(Cc2ccccc2)CC1 | 12.6 µM |
| O=C(c1ccc(-c2ccc(Cl)cc2)o1)N1CCN(c2ccc([N+](=O)[O-])cc2Cl)CC1 | 4.92 µM |
| CN(C1=C(NC(=O)c2ccc(Cl)cc2)C(=O)c2ccccc2C1=O)c1ccccc1 | 13 µM |
| Cc1nc2c(-c3ccc(Cl)cc3)c(C)[nH]n2c(=O)c1Cc1ccccc1 | 5.46 µM |
| Cc1ccc(NS(=O)(=O)c2cc([N+](=O)[O-])ccc2NNC(=S)Nc2cc(C)ccc2C)c(C)c1 | 4.65 µM |
| C/C(=N\NC(=O)c1ccc(C)cc1)c1c(C)[nH]n(-c2ccccc2)c1=O | 15.3 µM |
| CC(C)CN(C(=O)COC(=O)C12CC3CC(CC(Cl)(C3)C1)C2)c1c(N)n(Cc2ccccc2)c(=O)[nH]c1=O | 6.97 µM |
| O=C(COc1ccc2ccccc2c1)N1CCN(Cc2c[nH]c3ccccc23)CC1 | 2.8 µM |
| CCN(CC)S(=O)(=O)c1cccc(NC(=O)Nc2cccc(C(F)(F)F)c2)c1 | 7.13 µM |
| CCOC(=O)C1CCN(C(=O)c2c(C)oc3c2C(=O)c2ccccc2C3=O)CC1 | 17.4 µM |
| C/C(=N/NC(=O)c1cccs1)c1c(C)[nH]n(-c2nc3ccccc3s2)c1=O | 16.2 µM |
| CCCCOCCCNc1ncnc2c1[nH]c1ccccc12 | 2.24 µM |
| CCCCCCCCCCOC(=O)Cn1c(COc2cccc(OC)c2)[n+](C)c2ccccc21 | 3.47 µM |
| CC(NC(=S)NC1CCCCC1)c1ccc(C(C)(C)C)cc1 (centres undefined) | 11.2 µM |
| Cc1ccc(NC2=C/C(=N\S(=O)(=O)c3cccs3)c3ccccc3C2=O)c(C)c1 | 1.88 µM |
| CN1/C(=C\C(=S)NC(=O)c2cccc(Br)c2)C(C)(C)c2ccccc21 | 3.93 µM |
| CCN(CC)CCCNC1=C(Cl)C(=O)c2ccccc2C1=O | 13.1 µM |
| CCCCCCc1cc2cc(-c3nnc(-c4ccccc4O)o3)c(=O)oc2cc1O | 7.66 µM |

| Structure (SMILES) | AC50 |
| --- | --- |
| Cc1nc(C)c(C(=O)N/N=C/c2cc(Br)ccc2O)s1 | 7.57 µM |
| O=C(NCCc1cn2ccccc2n1)c1cc(COc2ccc3ncccc3c2)on1 | 8.04 µM |
| COc1ccc(C(NC(C)=O)c2ccc3cccnc3c2O)c(OC)c1 (centres undefined) | 4.24 µM |
| Cc1ccc(-n2ncc3c2CCCC3NC(=O)c2ocnc2C)cc1C (centres undefined) | 6.97 µM |
| COc1ccc(O)c(/C=N/NC(=O)c2cccc(N3CCCC3=O)c2)c1 | 14.8 µM |
| CC1=NN(c2ccc(C)c(C)c2)C(=O)/C1=C\C=C\c1ccc([N+](=O)[O-])o1 | 7.6 µM |
| CC1CN(S(=O)(=O)c2ccc(C(=O)NCCCn3ccnc3)cc2)CC(C)O1 (centres undefined) | 1.39 µM |
| COc1ccc([N+](=O)[O-])c(S(=O)(=O)c2ccc(Cl)cc2)n1 | 7.61 µM |
| O=C(c1ccc([N+](=O)[O-])s1)N1CCN(c2cccc(Cl)c2)CC1 | 19.3 µM |
| CCCn1c(Nc2nc3ccccc3n2C)nc2ccccc21 | 7.26 µM |
| CC(CNC(=O)c1ccc(OC2CCN(Cc3ccccn3)CC2)cc1)Oc1cccnc1 (centres undefined) | 7.36 µM |
| COc1cccc(/C=N/NC(=O)c2c(-c3ccccc3)noc2C)c1O | 8.09 µM |
| Cc1onc(-c2ccccc2)c1C(=O)NC(=S)NNC(=O)c1ccccc1O | 18.4 µM |
| O=C(C#Cc1ccccc1)c1ccco1 | 7.8 µM |
| C/C(=N\NC(=O)c1nnn(-c2nonc2N)c1-c1ccccc1)c1ccccc1O | 2.17 µM |
| COC(=O)c1cccc(NC(=O)Nc2ccc(Cl)c(Cl)c2)c1 | 10.4 µM |
| CCCCCCCCCCn1c2c(c(=N)c3c1CCC3)CCC2 | < 0.195 µM |
| N#Cc1ccc(NC(=O)Nc2ccc(Cl)cc2)cc1 | 6.57 µM |
| COc1ccc(CCNc2ncnc3c2oc2ccccc23)cc1OC | 3.41 µM |
| CCC(C)Sc1ccc(-c2nc3ccc(C)cn3c2NCc2ccccc2)cc1OC (centres undefined) | 6.46 µM |
| C=CCn1nc([N+](=O)[O-])nc1Sc1cccc2cccnc12 | 6.79 µM |
